Measured values: ChEMBL document CHEMBL5505996, “Discovery of novel osthole derivatives exerting anti-inflammatory effect on DSS-induced ulcerative colitis and LPS-induced acute lung injury in mice” (Eur J Med Chem, 2024)
Converted amounts (≈) assume the structure as drawn. The source made the active and inactive calls. No cut-off for these calls is given here.

Tests used:
J774.A1 [1] = assay: Antiinflammatory activity against LPS-induced mouse J774.A1 cells assessed as inhibition of IL-6 release at 10 uM pretreated for 30 mins followed by LPS stimulation and measured after 24 hrs by ELISA relative to control; assay type: functional; conditions: time 24.5 hrs
J774.A1 [2] = assay: Antiinflammatory activity against LPS-induced mouse J774.A1 cells assessed as inhibition of IL-6 release at 1.25 to 10 uM pretreated for 30 mins followed by LPS stimulation and measured after 24 hrs by ELISA; assay type: functional, cell-based; conditions: dose 1.25-10 µM, time 24.5 hrs
THP-1 [3] = assay: Antiinflammatory activity against LPS-induced PMA-differentiated human THP-1 cells assessed as inhibition of TNF-alpha release at 5 to 40 uM pretreated for 30 mins followed by LPS stimulation and measured after 24 hrs by ELISA; assay type: functional, cell-based; conditions: dose 5-40 µM, time 24.5 hrs
[4] = Aqueous solubility of compound in phosphate buffer at pH 7.4 measured after 24 hrs by HPLC analysis; assay type: physicochemical
RAW264.7 [5] = assay: Antiinflammatory activity against LPS-induced mouse RAW264.7 cells assessed as inhibition of TNF-alpha release pretreated for 30 mins followed by LPS stimulation and measured after 24 hrs by ELISA; assay type: functional, cell-based
RAW264.7 [6] = assay: Antiinflammatory activity against LPS-induced mouse RAW264.7 cells assessed as inhibition of IL-6 release pretreated for 30 mins followed by LPS stimulation and measured after 24 hrs by ELISA; assay type: functional, cell-based
THP-1 [7] = assay: Antiinflammatory activity against LPS-induced PMA-differentiated human THP-1 cells assessed as inhibition of IL-6 release at 5 to 40 uM pretreated for 30 mins followed by LPS stimulation and measured after 24 hrs by ELISA; assay type: functional, cell-based; conditions: dose 5-40 µM, time 24.5 hrs
J774.A1 [8] = assay: Antiinflammatory activity against LPS-induced mouse J774.A1 cells assessed as inhibition of TNF-alpha release at 1.25 to 10 uM pretreated for 30 mins followed by LPS stimulation and measured after 24 hrs by ELISA; assay type: functional, cell-based; conditions: dose 1.25-10 µM, time 24.5 hrs
J774.A1 [9] = assay: Cytotoxicity against mouse J774.A1 cells assessed as reduction in cell proliferation at 10 uM measured after 24 hrs by CCK-8 assay; assay type: toxicity, cell-based; conditions: j774.a1, 24 h
J774.A1 [10] = assay: Antiinflammatory activity against LPS-induced mouse J774.A1 cells assessed as inhibition of IL-6 release at 10 uM pretreated for 30 mins followed by LPS stimulation and measured after 24 hrs by ELISA; assay type: functional, cell-based; conditions: time 24.5 hrs
Mus musculus [11] = assay: Antiinflammatory activity against C57BL/6 mouse model of LPS induced acute lung injury assessed as reduction in pulmonary edema by measuring reduction in lung wet/dry ratio at 20 mg/kg, po administered every 12 hrs for 3 times followed by LPS stimulation for 6 hrs starting from 30 mins post last dose; assay type: functional, organism-based; conditions: time 42.5 hrs
Mus musculus [12] = assay: Antiinflammatory activity against C57BL/6 mouse model of LPS induced acute lung injury assessed as reduction in IL-6 mRNA expression in lung at 20 mg/kg, po administered every 12 hrs for 3 times followed by LPS stimulation for 6 hrs starting from 30 mins post last dose by RT-qPCR analysis; assay type: functional, organism-based; conditions: time 42.5 hrs
Mus musculus [13] = assay: Antiinflammatory activity against C57BL/6 mouse model of LPS induced acute lung injury assessed as reduction in IL-6 level in BALF at 20 mg/kg, po administered every 12 hrs for 3 times followed by LPS stimulation for 6 hrs starting from 30 mins post last dose by ELISA; assay type: functional, organism-based; conditions: time 42.5 hrs
Mus musculus [14] = assay: Antiinflammatory activity against C57BL/6 mouse model of LPS induced acute lung injury assessed as reduction in IL-6 level in serum at 20 mg/kg, po administered every 12 hrs for 3 times followed by LPS stimulation for 6 hrs starting from 30 mins post last dose by ELISA; assay type: functional, organism-based; conditions: time 42.5 hrs
Mus musculus [15] = assay: Antiinflammatory activity against C57BL/6 mouse model of LPS induced acute lung injury assessed as reduction in total number of cells in BALF at 20 mg/kg, po administered every 12 hrs for 3 times followed by LPS stimulation for 6 hrs starting from 30 mins post last dose; assay type: functional, organism-based; conditions: time 42.5 hrs
Mus musculus [16] = assay: Antiinflammatory activity against C57BL/6 mouse model of LPS induced acute lung injury assessed as reduction in TNF-alpha mRNA expression in lung at 20 mg/kg, po administered every 12 hrs for 3 times followed by LPS stimulation for 6 hrs starting from 30 mins post last dose by RT-qPCR analysis; assay type: functional, organism-based; conditions: time 42.5 hrs
Mus musculus [17] = assay: Antiinflammatory activity against C57BL/6 mouse model of DSS induced ulcerative colitis assessed as reduction in inflammatory cytokines infiltration in intestine at 100 mg/kg, po administered daily for 10 days by immunohistochemical staining based analysis; assay type: functional, organism-based; conditions: time 10.0 day
Mus musculus [18] = assay: Antiinflammatory activity against C57BL/6 mouse model of DSS induced ulcerative colitis assessed as reduction in IL-6 level in serum at 100 mg/kg, po administered daily for 10 days; assay type: functional, organism-based; conditions: time 10.0 day
Mus musculus [19] = assay: Antiinflammatory activity against C57BL/6 mouse model of DSS induced ulcerative colitis assessed as reversal of weight loss at 100 mg/kg, po administered daily for 10 days; assay type: functional, organism-based; conditions: time 10.0 day
Mus musculus [20] = assay: Antiinflammatory activity against C57BL/6 mouse model of DSS induced ulcerative colitis assessed as reversal of shortened intestinal length due to fecal obstruction at 100 mg/kg, po administered daily for 10 days; assay type: functional, organism-based; conditions: time 10.0 day

SMILES	inhibition at 10 µM (J774.A1 [1])	further results
CCN1CCN(CCOc2ccc3ccc(=O)oc3c2CC=C(C)C)CC1	88.6%	
CC(C)=CCc1c(OCc2cccc(C)c2)ccc2ccc(=O)oc12	77.9%	
CC(C)=CCc1c(OCc2cccc(F)c2)ccc2ccc(=O)oc12	68.8%	
CC(C)=CCc1c(OCCN2CCCC(C)C2)ccc2ccc(=O)oc12 (centres undefined)	31.4%	
COc1ccc2ccc(=O)oc2c1CC=C(C)C [OSTHOLE]		Activity (J774.A1 [2]): inactive; Activity (THP-1 [3]): inactive; solubility at 24 h [4]: 10 µg/mL (≈ 40.9 µM); IC50 (RAW264.7 [5]): 113 µM; IC50 (RAW264.7 [6]): 146 µM; Activity (THP-1 [7]): inactive; Activity (J774.A1 [8]): inactive
CC(C)=CCc1c(OCCN2CCOCC2)ccc2ccc(=O)oc12	71.7%	
CC(C)=CCc1c(OCC(=O)Nc2ccccc2Br)ccc2ccc(=O)oc12	88.3%	Activity (J774.A1 [9]): Toxic
CCN1CCN(CCCOc2ccc3ccc(=O)oc3c2CC=C(C)C)CC1	92.2%	Activity (J774.A1 [9]): Toxic
CC(C)=CCc1c(OCCCN2CCN(C)CC2)ccc2ccc(=O)oc12	81.9%	
CCN1CCN(C(=O)COc2ccc3ccc(=O)oc3c2CC=C(C)C)CC1	46%	
CC(C)=CCc1c(OCC2CCCCC2)ccc2ccc(=O)oc12	88%	
CC(C)=CCc1c(OCCN2CCCCC2)ccc2ccc(=O)oc12	10.6%	
CC(C)=CCc1c(OCCN(C)C)ccc2ccc(=O)oc12		Activity (J774.A1 [10]): inactive
COc1cccc(COc2ccc3ccc(=O)oc3c2CC=C(C)C)c1	80.2%	
CC(C)=CCc1c(OCCN2CCN(C)CC2)ccc2ccc(=O)oc12	69%	
C[C@@H]1C[C@H]2[C@@H]3CCC4=CC(=O)C=C[C@]4(C)[C@@]3(F)[C@@H](O)C[C@]2(C)[C@@]1(O)C(=O)CO		Activity (Mus musculus [11]): Active; Activity (Mus musculus [12]): Active; Activity (Mus musculus [13]): Active; Activity (Mus musculus [14]): Active; Activity (Mus musculus [15]): Active; Activity (Mus musculus [16]): Active
CC(C)=CCc1c(OCC2CCCO2)ccc2ccc(=O)oc12 (centres undefined)	82.5%	
CC(C)=CCc1c(OCC2CC2)ccc2ccc(=O)oc12	64.2%	
CC(C)=CCc1c(OCCCN2CCCC2)ccc2ccc(=O)oc12	63.3%	
CC(C)=CCc1c(OCCCN2CCOCC2)ccc2ccc(=O)oc12	69%	
CC(C)=CCc1c(OCCNCCN2CCOCC2)ccc2ccc(=O)oc12	46.8%	
CC(C)=CCc1c(OCc2ccc(C)cc2)ccc2ccc(=O)oc12	88.7%	
CC(C)=CCc1c(OCC(=O)NCCCN2CCOCC2)ccc2ccc(=O)oc12	21.5%	
CC(C)=CCc1c(OCC(=O)Nc2ccccc2)ccc2ccc(=O)oc12	48.5%	
Nc1ccc(O)c(C(=O)O)c1		Activity (Mus musculus [17]): Active; Activity (Mus musculus [18]): Active; Activity (Mus musculus [19]): Active; Activity (Mus musculus [20]): Active
CC(C)=CCc1c(OCCCCN2CCN(C)CC2)ccc2ccc(=O)oc12	82.3%	
CC(C)=CCc1c(OCC2CO2)ccc2ccc(=O)oc12 (centres undefined)	82.3%	
CC(C)=CCc1c(OCCN2CCCC2)ccc2ccc(=O)oc12		Activity (J774.A1 [10]): inactive
